In brackets after ≈: the same amount, converted by molar mass. Several values for one entry are separate records, joined by “and”; a condition that tells them apart may be missing. Identical values can stand only once. Like-named read-outs stand apart in the source and are kept apart here.
Legend:
[1] = system: hyperthermia caused by the injection of brewer's yeast; experiment: Antipyretic activity, hyperthermia caused by injection of brewer's yeast; assay type: in vivo, rats; details: intraperitoneal; for central temperature: 200 mg to 400 mg/kg, 37.28 ± 0.052 at Ho
Description: The antipyretic activity of 1-o-acetoxybenzoyl-4-hydroxyl-L-proline was assessed by the hyperthermia caused by the injection of brewer's yeast 17 hours before the start of the experiment (groups of 8 rats + 1 comparison group without yeast). The first temperature measurement was made at time Ho and the compounds to be tested were then administered intraperitoneally. The central temperature was then checked 1 hour 30 minutes, 3 hours and 4 hours 30 minutes after Ho.

mice = experiment: acute toxicity on intravenous administration to mice; assay type: in vivo
Text: (§1) acute toxicity on intravenous administration to mice
(§2) The acute toxicity of 1-o-acetoxybenzoyl-4-hydroxy-L-proline was investigated by comparison with an injectable aspirin, namely lysine acetylsalicylate. The acetylsalicylic acid content of the two compounds was substantially the same (about 50%).
(§3) (Intravenous administration to mice)
(§4) *x/5: number of dead animals amongst 5 animals tested.

[2] = system: carrageenin-induced plantar oedema; experiment: Anti-inflammatory activity, carrageenin-induced plantar oedema test on rats (intraperitoneal); assay type: in vivo; details: for percentage variation in volume, (V2 - V1)/V1 × 100, individual rats: 200 mg/kg (expressed as weight of compound); for percentage variation in volume, (V2 - V1)/V1 × 100, individual rats / percentage variation in volume, mean (X): 3 hours; for percentage variation in volume, mean (X): controls 88.22% ± 10.5; for Percentage variation: mean oedema versus controls
Description: The anti-inflammatory activity of 1-o-acetoxybenzoyl-4-hydroxy-L-proline was studied by means of the carrageenin-induced plantar oedema test on rats.
[…] of each rat in three groups of 8 to 9 rats was injected with carrageenin at time Ho. The first group was a control group and the second and third groups were test groups. The volume (V1) of the paw was then measured, and the compounds to be tested were administered intraperitoneally. The volume (V2) of the same paw was measured again three hours later.

[3] = system: phenylbenzoquinone cramping; experiment: Analgesic activity, phenylbenzoquinone cramping test; assay type: in vivo; details: oral; for Percentage change in number of cramps versus control / Number of cramps / Percentage inhibition relative to the control animals: 2 hours before test; for Number of cramps: control 449
Description: The analgesic activity of 1-o-acetoxybenzoyl-4-hydroxy-L-proline was studied by means of the phenylbenzoquinone cramping test, in comparison with the same injectable aspirin as that used in Example 2, the two compouns being administered orally 2 hours before the test on groups of 10 animals; a control group of animals to which neither compound was administered was also used.

Solubility in water = assay type: physicochemical
[4] = acute toxicity, intraperitoneal administration to mice; details: mouse, in vivo, ip
Text: The LD50 of the compound according to the invention, when administered intraperitoneally to mice, was about 10g/kg, whilst it was about 3g/kg for lysine acetylsalicylate.

[5] = system: carrageenin-induced oedema; experiment: Anti-inflammatory activity, carrageenin-induced oedema test on rats (intramuscular); assay type: in vivo; details: for % inhibition / % Variation in the volume of the oedema: 3 hours; for % Variation in the volume of the oedema: comparisons 107.39 ± 5.19
Description: The anti-inflammatory activity of 1-o-acetoxybenzoyl-L-proline was studied by means of the carrageenin-induced oedema test on rats. In this test, the antiinflammatory activity of the compound according to the invention was compared with that of an injectable aspirin, namely lysine acetylsalicylate.
the compounds were injected intramuscularly, 30 minutes before the carrageenin. The volume of the oedema was measured three hours afterwards.

rats = experiment: Analgesic activity, Randall-Selitto test on rats; assay type: in vivo
Text: The analgesic activity of 1-o-acetoxybenzoyl-L-proline was studied on rats by means of the Randall-Selitto test (Arch. int. Pharmacodyn., 1957, 111, 409, 419).

[6] = acute toxicity on intravenous administration to mice; assay type: in vivo; details: mouse, in vivo; intravenous, mice
Text: as §1, §2, §3, §4

[7] = acute toxicity, oral administration to mice; details: mouse, in vivo, orally
gastric ulcers = details: administered orally; known disadvantage; cited from earlier work
[8] = 50 mg/kg (expressed as weight of compound)
[9] = 100 mg/kg (expressed as weight of compound)
[10] = 50 mg/kg (expressed as acetylsalicylic acid)
[11] = 100 mg/kg (expressed as acetylsalicylic acid)

SMILES	central temperature ([1]; 1 hr 30 mins after Ho)	central temperature ([1]; 3 hrs after Ho)	central temperature ([1]; 4 hrs 30 mins after Ho)	number of dead animals amongst 5 animals tested (mice; intravenous, mice, 1,500 mg/kg)	number of dead animals amongst 5 animals tested (mice; intravenous, mice, 3,000 mg/kg)	percentage variation in volume, mean (X) ([2]; 200 mg/kg)	Percentage variation ([2]; 200 mg/kg)	% inhibition ([5]; 50 mg/kg)	% Variation in the volume of the oedema ([5]; 50 mg/kg)	% inhibition ([5]; 100 mg/kg)	% Variation in the volume of the oedema ([5]; 100 mg/kg)	% inhibition ([5]; 200 mg/kg)	% Variation in the volume of the oedema ([5]; 200 mg/kg)	Inhibition % (rats; 50 mg/kg, 1 hour)	Inhibition % (rats; 50 mg/kg, 2 hours)	Inhibition % (rats; 50 mg/kg, 4 hours)	Inhibition % (rats; 100 mg/kg, 1 hour)	Inhibition % (rats; 100 mg/kg, 2 hours)	Inhibition % (rats; 100 mg/kg, 4 hours)	Inhibition % (rats; 200 mg/kg, 1 hour)	further results
CC(=O)Oc1ccccc1C(=O)N1CC(O)C[C@H]1C(=O)O (stereo partly drawn) [1-o-acetoxybenzoyl-4-hydroxy-L-proline]	36.12 °C	36.40 °C	36.82 °C	0/5	0/5	66.61 ± 9.7%	-24%	–	–	–	–	–	–	–	–	–	–	–	–	–	antipyretic activity (in words) ([1]; versus injectable aspirin): greater than that of the injectable aspirin; toxicity (in words) (mice; intravenous, mice): substantially non-toxic; number of dead animals amongst 5 animals tested (mice; intravenous, mice, 700 mg/kg): 0/5; number of dead animals amongst 5 animals tested (mice; intravenous, mice, 4,000 mg/kg): 0/5; immediate symptoms (mice; mouse, in vivo, iv): practically no symptoms; percentage variation in volume, (V2 - V1)/V1 × 100, individual rats ([2]; listed as Compound according to the invention): 63.6% and 64% and 82.5% and 82.3% and 63.5% and 61.6% and 67.4% and 53.7% and 60.9%; anti-inflammatory activity (in words) ([2]; 200 mg/kg, versus injectable aspirin): very good anti-inflammatory activity, markedly superior to that of the injectable aspirin; Percentage change in number of cramps versus control [3, 8]: -12%; Number of cramps [3, 8]: 396; Percentage change in number of cramps versus control [3, 9]: -57%; Number of cramps [3, 9]: 194; analgesic activity relative to the injectable aspirin ([3]; phenylbenzoquinone test): practically twice that of the injectable aspirin; solubility (Solubility in water; pH = 3): ~50 mg/mL (≈ 170 mM); LD50 [4]: ~10000 mg/kg
CC(=O)Oc1ccccc1C(=O)N1CCC[C@H]1C(=O)O [1-o-acetoxybenzoyl-L-proline]	–	–	–	–	–	–	–	2.48%	104.73 ± 7.23%	23.97%	81.65 ± 5.97%	29.50%	75.71 ± 4.8%	59.49%	67.57%	44.00%	74.68%	89.19%	53.33%	98.73%	antiinflammatory activity (in words) ([5]; dose of 100 mg): comparable to that of lysine acetylsalicylate used at medium doses; solubility (Solubility in water): 50 mg/mL (≈ 180 mM); Inhibition % (rats; 200 mg/kg, 2 hours): 130.98%; Inhibition % (rats; 200 mg/kg, 4 hours): 104.01%; analgesic activity (in words) (rats; dose of 100 mg): comparable to that of lysine acetylsalicylate used at medium doses
CC(=O)Oc1ccccc1C(=O)O [Lysine acetylsalicylate, lysine acetylsalicylate, reference compound]	36.64 °C	36.92 °C	36.90 °C	0/5	3/5	74.29% ± 9.36	-16%	16.74%	89.41 ± 9.39%	27.56%	77.79 ± 5.39%	41.76%	62.54 ± 6.83%	72.98%	60.26%	65.79%	85.14%	97.44%	73.68%	105.40%	LD50 [6]: ~2000 mg/kg; immediate symptoms (mice; intravenous, mice): pronounced, with depression, ataxia and convulsions occurring; number of dead animals amongst 5 animals tested (mice; intravenous, mice, 2,000 mg/kg): 5/5; number of dead animals amongst 5 animals tested (mice; intravenous, mice, 3,500 mg/kg): 5/5; percentage variation in volume, (V2 - V1)/V1 × 100, individual rats ([2]; listed as Injectable aspirin): 74.4% and 83.3% and 70.7% and 68.3% and 87.5% and 61% and 85% and 64%; Percentage inhibition relative to the control animals [3, 10]: -14%; Number of cramps [3, 10]: 386; Percentage inhibition relative to the control animals [3, 11]: -56%; Number of cramps [3, 11]: 196; LD50 [7]: 3000 mg/kg; Inhibition % (rats; 200 mg/kg, 2 hours): 124.36%; Inhibition % (rats; 200 mg/kg, 4 hours): 111.84%; LD50 ([4]; intraperitoneally, mice, read-out: LD50): ~3000 mg/kg
CC(=O)Oc1ccccc1C(=O)O [acetylsalicylic acid]	–	–	–	–	–	–	–	–	–	–	–	–	–	–	–	–	–	–	–	–	ulcerogenic activity (gastric ulcers): ulcerogenic

Source: patent US4123544A, “Acetylsalicylic acid derivatives” (priority 1977, dated 1978)
